In patent publication US9932350B2, “Inhibitors of IRAK4 activity” (MERCK SHARP & DOHME CORP., priority 2014, dated 2018):

Biological target: GST tagged IRAK4 (Homo sapiens (Human), UniProt Q9NWZ3)
Experiment: IRAK4 Kinase Assay (IMAP fluorescence polarization)
Format: biochemical
Conditions: 0.5 nM GST tagged IRAK4, 100 μM ATP, 30 minutes at 25° C.
Experimental: The kinase activity of IRAK4 is determined by its ability to catalyze the phosphorylation of a fluorescent polypeptide substrate. The extent of phosphorylation is measured using the IMAP technology (Molecular Devices) where the phosphorylated fluorescent substrate binds to the large M(III)-based nanoparticles which reduces the rotational speed of the substrate and thus increases its fluorescent polarization (FP).
20 μL reaction mixture contains 10 mM TriHCl, pH 7.2, 0.5 nM GST tagged IRAK4 (SignalChem), 100 nM fluorescent peptide substrate (RP7030, Molecular Devices), 100 μM ATP, 1 mM DDT, 1 mM MgCl2, and 0.01% Tween 20. The reaction is initiated by the addition of ATP. After incubation for 30 minutes at 25° C., 60 μL of Progressive IMAP Reagent (Molecular Devices) is added to stop the reaction. Change in RP7030's FP is determined by a FP reader (Analyst HT, LJL BioSystems).

Sequence of GST tagged IRAK4 (Q9NWZ3 whole entry): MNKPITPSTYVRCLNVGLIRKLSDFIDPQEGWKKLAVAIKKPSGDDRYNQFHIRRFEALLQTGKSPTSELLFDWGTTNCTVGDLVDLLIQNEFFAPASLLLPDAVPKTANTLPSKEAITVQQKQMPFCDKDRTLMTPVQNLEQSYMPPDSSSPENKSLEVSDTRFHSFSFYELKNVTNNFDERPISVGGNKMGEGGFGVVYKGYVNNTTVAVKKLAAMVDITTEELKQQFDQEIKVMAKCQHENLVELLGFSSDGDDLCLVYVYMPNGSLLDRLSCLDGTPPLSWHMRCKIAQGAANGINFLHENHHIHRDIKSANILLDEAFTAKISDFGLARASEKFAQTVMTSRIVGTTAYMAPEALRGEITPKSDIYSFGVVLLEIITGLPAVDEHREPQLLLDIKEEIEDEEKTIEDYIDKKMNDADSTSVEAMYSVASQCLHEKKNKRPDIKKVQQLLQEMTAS

Row | IC50 [nM] | Compound
1 | 15 | Fc1cc2ncnc(N[C@H]3CC[C@H](N4CCOCC4)CC3)c2cc1Br [Example 2-11, 6-bromo-7-fluoro-N-[trans-4-(morpholin-4-yl)cyclohexyl]quinazolin-4-amine]
2 | 9 | N#Cc1ccc2ncnc(N[C@H]3CC[C@H](N4CCN(C(=O)CC5CC5)CC4)CC3)c2c1 [Example 6-17, 4-({trans-4-[4-(cyclopropylacetyl)piperazin-1-yl]cyclohexyl}amino) quinazoline-6-carbonitrile]
3 | 9 | N#Cc1ccc2ncnc(N[C@H]3CC[C@H](N4CCC(CN5CCOCC5)CC4)CC3)c2c1 [Example 3-43, 4-({trans-4-[4-(mopholin-4-ylmethyl)piperidin-1-yl]cyclohexyl}amino) quinazoline-6-carbonitrile]
4 | 41 | N#Cc1ccc2ncnc(N[C@H]3CC[C@H](N4CC(N5CCOCC5)C4)CC3)c2c1 [Example 3-37, 4-({trans-4-[3-(morpholin-4-yl)azetidin-1-yl]cyclohexyl}amino) quinazoline-6-carbonitrile]
5 | 12 | CC(C)(F)C(=O)N1CCN([C@H]2CC[C@H](Nc3ncnc4ccc(C#N)cc34)CC2)CC1 [Example 6-5, 4-({trans-4-[4-(2-fluoro-2-methylpropanoyl)piperazin-1-yl]cyclohexyl}amino) quinazoline-6-carbonitrile]
6 | 38 | N#Cc1ccc2ncnc(N[C@H]3CC[C@H](N4CCCC(F)C4)CC3)c2c1 (stereo partly drawn) [Example 3-35, 4-{[trans-4-(3-fluoropiperidin-1-yl)cyclohexyl]amino} quinazoline-6-carbonitrile]
7 | 6 | CC(C)(C)OC(=O)N1CCN([C@H]2CC[C@H](Nc3ncnc4ccc(C#N)cc34)CC2)CC1 [Example 3-45, tert-butyl 4-{trans-4-[(6-cyanoquinazolin-4-yl)amino]cyclohexyl} piperazine-1-carboxylate]
8 | 82 | CC(C)Oc1ccc2ncnc(N[C@H]3CC[C@H](N4CCOCC4)CC3)c2c1 [Example 2-10, N-[trans-4-(morpholin-4-yl)cyclohexyl]-6-(propan-2-yloxy)quinazolin-4-amine]
9 | 26 | CC(C)[C@@H]1COCCN1[C@H]1CC[C@H](Nc2ncnc3ccc(C#N)cc23)CC1 [Example 3-52, 4-({trans-4-[(3R)-3-(propan-2-yl)morpholin-4-yl]cyclohexyl}amino) quinazoline-6-carbonitrile]
10 | 43 | C[C@]1(Nc2ncnc3ccc(C#N)cc23)CC[C@H](N2CCC(O)C2)CC1 (stereo partly drawn) [Example 7-3, 4-{[trans-4-(3-hydroxypyrrolidin-1-yl)-1-methylcyclohexyl]amino} quinazoline-6-carbonitrile]
11 | 9 | CC(C)(CF)C(=O)N1CCN([C@H]2CC[C@H](Nc3ncnc4ccc(C#N)cc34)CC2)CC1 [Example 6-4, 4-({trans-4-[4-(3-fluoro-2,2-dimethylpropanoyl)piperazin-1-yl]cyclohexyl}amino) quinazoline-6-carbonitrile]
12 | 7420 | COc1cc2ncnc(N[C@H]3CC[C@H](N(C)C)CC3)c2cc1OC [Example 2-3, trans-N′-(6,7-dimethoxyquinazolin-4-yl)-N,N-dimethylcyclohexane-1,4-diamine]
13 | 96 | CC1OCCN([C@H]2CC[C@H](Nc3ncnc4ccc(C#N)cc34)CC2)C1C (stereo partly drawn) [Example 3-7, 4-{[trans-4-(2,3-dimethylmorpholin-4-yl)cyclohexyl]amino} quinazoline-6-carbonitrile]
14 | 70 | N#Cc1ccc2ncnc(N[C@H]3CC[C@H](N4CCCC(CN5CCOCC5)C4)CC3)c2c1 (single isomer, unassigned) [Example 3-41, 4-({trans-4-[(3R or 3S)-3-(morpholin-4-ylmethyl)piperidin-1-yl]cyclohexyl}amino) quinazoline-6-carbonitrile]
15 | 14 | CC(F)C(=O)N1CCN([C@H]2CC[C@H](Nc3ncnc4ccc(C#N)cc34)CC2)CC1 (stereo partly drawn) [Example 6-7, 4-({trans-4-[4-(2-fluoropropanoyl)piperazin-1-yl]cyclohexyl}amino) quinazoline-6-carbonitrile]
16 | 4 | CC1CN([C@H]2CC[C@H](Nc3ncnc4ccc(C#N)cc34)CC2)CCO1 (single isomer, unassigned) [Example 3-17, 4-({trans-4-[(2S or 2R)-2-methylmorpholin-4-yl]cyclohexyl}amino) quinazoline-6-carbonitrile]
17 | 15 | N#Cc1ccc2ncnc(N[C@H]3CC[C@H](N4CC[C@@H](O)C4)CC3)c2c1 [Example 3-38, 4-({trans-4-[(3R)-3-hydroxypyrrolidin-1-yl]cyclohexyl}amino) quinazoline-6-carbonitrile]

Row | IC50 [nM] | Compound
18 | 27 | N[C@H]1CC[C@H](Nc2ncnc3ccc(Br)cc23)CC1 [Example 1-2, trans-N-(6-bromoquinazolin-4-yl)cyclohexane-1,4-diamine]
19 | 33 | CC1CN([C@H]2CC[C@H](Nc3ncnc4ccc(C#N)cc34)CC2)CC(C)O1 (single isomer, unassigned) [Example 3-14, 4-({trans-4-[(2S,6S or 2R,6R)-2,6-dimethylmorpholin-4-yl]cyclohexyl}amino) quinazoline-6-carbonitrile]
20 | 10 | N#Cc1ccc2ncnc(N[C@H]3CC[C@H](N4CCN(C(=O)C5CCC5)CC4)CC3)c2c1 [Example 6-15, 4-({trans-4-[4-(cyclobutylcarbonyl)piperazin-1-yl]cyclohexyl}amino) quinazoline-6-carbonitrile]
21 | 8 | CS(=O)(=O)N1CCN([C@H]2CC[C@H](Nc3ncnc4ccc(C#N)cc34)CC2)CC1 [Example 3-20, 4-({trans-4-[4-(methylsulfonyl)piperazin-1-yl]cyclohexyl}amino) quinazoline-6-carbonitrile]
22 | 52 | CN(C)[C@H]1CC[C@H](Nc2ncnc3ccc(OCC(N)=O)cc23)CC1 [Example 2-17, 2-[(4-{[trans-4-(dimethylamino)cyclohexyl]amino}quinazolin-6-yl)oxy]acetamide]
23 | 9 | CN(C)[C@H]1CC[C@H](Nc2ncnc3ccc(Br)cc23)CC1 [Example 2-6, trans-N′-(6-bromoquinazolin-4-yl)-N,N-dimethylcyclohexane-1,4-diamine]
24 | 174 | N#Cc1ccc2ncnc(N[C@H]3CC[C@H](N4CCC5OCCC54)CC3)c2c1 (stereo partly drawn) [Example 3-39, 4-{[trans-4-(hexahydro-4H-furo[3,2-b]pyrrol-4-yl)cyclohexyl]amino} quinazoline-6-carbonitrile]
25 | 303 | CN(C)[C@H]1CC[C@H](Nc2ncnc3cc(F)c(F)cc23)CC1 [Example 2-4, trans-N′-(6,7-difluoroquinazolin-4-yl)-N,N-dimethylcyclohexane-1,4-diamine]
26 | 10 | N#Cc1ccc2ncnc(N[C@H]3CC[C@H](N4CCN(C(=O)C5CC(O)C5)CC4)CC3)c2c1 (stereo partly drawn) [Example 6-21, 4-[(trans-4-{4-[(3-hydroxycyclobutyl)carbonyl]piperazin-1-yl}cyclohexyl)amino] quinazoline-6-carbonitrile]
27 | 51 | CO[C@@H]1CCN([C@H]2CC[C@H](Nc3ncnc4ccc(C#N)cc34)CC2)C1 [Example 3-40, 4-({trans-4-[(3R)-3-methoxypyrrolidin-1-yl]cyclohexyl}amino) quinazoline-6-carbonitrile]
28 | 8 | CC(C)(C)C(=O)N1CCN([C@H]2CC[C@H](Nc3ncnc4ccc(C#N)cc34)CC2)CC1 [Example 6-3, 4-({trans-4-[4-(2,2-dimethylpropanoyl)piperazin-1-yl]cyclohexyl}amino) quinazoline-6-carbonitrile]
29 | 132 | N#Cc1ccc2ncnc(N[C@H]3CC[C@H](N4CCCC(F)(F)C4)CC3)c2c1 [Example 3-33, 4-{[trans-4-(3,3-difluoropiperidin-1-yl)cyclohexyl]amino} quinazoline-6-carbonitrile]
30 | 256 | N#Cc1ccc2ncnc(N[C@H]3CC[C@H](N4CCOC(C(F)(F)F)C4)CC3)c2c1 (single isomer, unassigned) [Example 3-48, 4-({trans-4-[(2R or 2S)-2-(trifluoromethyl)morpholin-4-yl]cyclohexyl}amino) quinazoline-6-carbonitrile]
31 | 40 | Brc1ccc2ncnc(O[C@H]3CC[C@H](N4CCOCC4)CC3)c2c1 [Example 2-1, 6-Bromo-4-{[trans-4-(morpholin-4-yl)cyclohexyl]oxy}quinazoline]
32 | 525 | CN(C)[C@H]1CC[C@H](Nc2ncnc3ccc(OCCCC(N)=O)cc23)CC1 [Example 4-1, 4-[(4-{[Trans-4-(dimethylamino)cyclohexyl]amino}quinazolin-6-yl)oxy]butanamide]
33 | 6 | N#Cc1ccc2ncnc(N[C@H]3CC[C@H](N4CCOCC4)CC3)c2c1 [Example 2-7, 4-{[trans-4-(morpholin-4-yl)cyclohexyl]amino} quinazoline-6-carbonitrile]
34 | 5 | Brc1ccc2ncnc(N[C@H]3CC[C@H](N4CCOCC4)CC3)c2c1 [Example 2-2, 6-Bromo-N-[trans-4-(morpholin-4-yl)cyclohexyl]quinazolin-4-amine]

Row | Compound | IC50 [nM]
35 | N#Cc1ccc2ncnc(N[C@H]3CC[C@H](N4C5CCC4COC5)CC3)c2c1 [Example 3-47, 4-{[trans-4-(3-oxa-8-azabicyclo[3.2.1]oct-8-yl)cyclohexyl]amino} quinazoline-6-carbonitrile] | 872
36 | N#Cc1ccc2ncnc(N[C@H]3CC[C@H](N4CCN(C(=O)CF)CC4)CC3)c2c1 [Example 6-19, 4-({trans-4-[4-(fluoroacetyl)piperazin-1-yl]cyclohexyl}amino) quinazoline-6-carbonitrile] | 23
